{"source": "paper PMC10004634", "about": "(PLOS ONE, 2023)", "assay_in_all_cases": "biochemical", "design_in_all_cases": "KINOMEscan scanMAX competition binding, DNA-tagged kinases, qPCR read-out, percent control at 300 nM", "key": {"[1]": {"biological_target": "T1, CSNK1A1L (Homo sapiens, UniProt Q8N752)", "T1 sequence (Q8N752 1-337)": "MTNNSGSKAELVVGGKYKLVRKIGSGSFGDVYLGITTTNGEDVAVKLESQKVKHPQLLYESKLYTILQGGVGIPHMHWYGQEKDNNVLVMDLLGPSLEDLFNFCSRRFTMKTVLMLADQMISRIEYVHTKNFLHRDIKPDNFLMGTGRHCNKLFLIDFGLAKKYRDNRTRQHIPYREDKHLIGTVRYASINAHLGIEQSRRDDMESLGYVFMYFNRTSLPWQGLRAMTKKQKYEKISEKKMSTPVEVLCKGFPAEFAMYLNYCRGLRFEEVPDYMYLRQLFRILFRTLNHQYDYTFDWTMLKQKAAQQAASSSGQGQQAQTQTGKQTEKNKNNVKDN"}, "[2]": {"biological_target": "CSNK1G3 (Homo sapiens, UniProt Q9Y6M4)", "sequence (Q9Y6M4 whole entry)": "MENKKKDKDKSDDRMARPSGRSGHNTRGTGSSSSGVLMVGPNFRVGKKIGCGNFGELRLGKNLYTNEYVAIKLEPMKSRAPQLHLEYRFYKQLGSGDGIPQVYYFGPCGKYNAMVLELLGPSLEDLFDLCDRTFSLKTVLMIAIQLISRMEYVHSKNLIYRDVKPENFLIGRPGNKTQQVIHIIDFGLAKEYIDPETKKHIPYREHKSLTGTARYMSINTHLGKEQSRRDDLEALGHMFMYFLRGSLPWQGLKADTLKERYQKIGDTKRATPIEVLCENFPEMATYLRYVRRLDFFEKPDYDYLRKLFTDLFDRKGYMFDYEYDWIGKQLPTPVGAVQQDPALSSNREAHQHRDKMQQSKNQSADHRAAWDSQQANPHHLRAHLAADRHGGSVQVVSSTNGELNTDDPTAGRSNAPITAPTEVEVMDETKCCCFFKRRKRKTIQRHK"}, "[3]": {"biological_target": "FGFR3 (Homo sapiens, UniProt P22607)", "sequence (P22607 whole entry)": "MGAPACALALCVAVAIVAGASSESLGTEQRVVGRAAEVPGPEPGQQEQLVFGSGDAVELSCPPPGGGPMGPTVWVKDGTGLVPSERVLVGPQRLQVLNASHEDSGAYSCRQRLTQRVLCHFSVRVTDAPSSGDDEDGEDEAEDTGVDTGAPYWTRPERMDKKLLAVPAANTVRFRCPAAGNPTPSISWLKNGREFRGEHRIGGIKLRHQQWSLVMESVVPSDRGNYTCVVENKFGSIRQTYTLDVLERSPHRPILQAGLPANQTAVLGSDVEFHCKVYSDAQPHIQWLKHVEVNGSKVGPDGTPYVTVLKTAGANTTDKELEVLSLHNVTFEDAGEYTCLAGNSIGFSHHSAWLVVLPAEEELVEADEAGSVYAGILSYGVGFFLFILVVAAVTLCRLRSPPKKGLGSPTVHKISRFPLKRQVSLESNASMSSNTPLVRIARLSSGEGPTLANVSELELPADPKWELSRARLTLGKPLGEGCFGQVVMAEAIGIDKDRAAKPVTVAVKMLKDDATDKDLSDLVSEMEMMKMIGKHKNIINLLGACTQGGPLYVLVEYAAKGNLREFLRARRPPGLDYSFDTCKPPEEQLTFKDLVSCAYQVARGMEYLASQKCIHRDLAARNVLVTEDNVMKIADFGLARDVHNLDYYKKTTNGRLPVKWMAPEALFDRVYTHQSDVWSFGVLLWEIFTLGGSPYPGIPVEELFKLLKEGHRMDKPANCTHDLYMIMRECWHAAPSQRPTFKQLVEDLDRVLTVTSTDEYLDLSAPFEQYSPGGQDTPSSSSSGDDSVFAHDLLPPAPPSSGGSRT"}, "[4]": {"biological_target": "HIPK3 (Homo sapiens, UniProt Q9H422)", "sequence (Q9H422 whole entry)": "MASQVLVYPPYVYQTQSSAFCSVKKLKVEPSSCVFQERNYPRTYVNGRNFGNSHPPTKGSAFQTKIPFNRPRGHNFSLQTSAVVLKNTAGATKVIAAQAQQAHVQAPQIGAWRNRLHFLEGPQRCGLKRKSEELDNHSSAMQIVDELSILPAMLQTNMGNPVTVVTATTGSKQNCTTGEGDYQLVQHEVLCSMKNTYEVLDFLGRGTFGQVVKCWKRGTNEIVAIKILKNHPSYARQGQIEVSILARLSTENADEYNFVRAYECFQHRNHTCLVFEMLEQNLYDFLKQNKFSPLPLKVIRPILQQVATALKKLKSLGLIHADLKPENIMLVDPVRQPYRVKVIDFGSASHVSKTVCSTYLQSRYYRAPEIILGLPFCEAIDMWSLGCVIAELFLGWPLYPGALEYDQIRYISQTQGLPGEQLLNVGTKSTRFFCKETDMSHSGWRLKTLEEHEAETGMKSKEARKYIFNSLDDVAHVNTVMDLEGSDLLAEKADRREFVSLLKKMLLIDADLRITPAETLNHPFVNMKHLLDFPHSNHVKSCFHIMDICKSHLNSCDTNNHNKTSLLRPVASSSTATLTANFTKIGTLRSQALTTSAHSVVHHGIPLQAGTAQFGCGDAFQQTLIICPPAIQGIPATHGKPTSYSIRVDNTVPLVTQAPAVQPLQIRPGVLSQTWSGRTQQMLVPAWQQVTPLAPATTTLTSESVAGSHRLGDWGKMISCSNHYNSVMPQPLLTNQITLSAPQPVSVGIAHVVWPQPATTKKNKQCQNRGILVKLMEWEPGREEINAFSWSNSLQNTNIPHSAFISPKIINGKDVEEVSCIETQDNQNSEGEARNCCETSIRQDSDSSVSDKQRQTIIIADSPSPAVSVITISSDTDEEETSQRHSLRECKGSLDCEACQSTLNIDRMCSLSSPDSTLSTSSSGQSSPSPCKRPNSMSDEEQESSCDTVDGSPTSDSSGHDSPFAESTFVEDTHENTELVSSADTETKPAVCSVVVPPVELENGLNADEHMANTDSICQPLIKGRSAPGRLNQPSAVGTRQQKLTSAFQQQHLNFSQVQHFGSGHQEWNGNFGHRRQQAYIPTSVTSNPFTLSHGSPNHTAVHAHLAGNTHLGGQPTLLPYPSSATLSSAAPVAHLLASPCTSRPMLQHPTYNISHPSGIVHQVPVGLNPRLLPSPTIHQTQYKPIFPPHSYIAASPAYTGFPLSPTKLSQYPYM"}, "[5]": {"biological_target": "T2, ITK (Homo sapiens, UniProt Q08881)", "T2 sequence (Q08881 1-620)": "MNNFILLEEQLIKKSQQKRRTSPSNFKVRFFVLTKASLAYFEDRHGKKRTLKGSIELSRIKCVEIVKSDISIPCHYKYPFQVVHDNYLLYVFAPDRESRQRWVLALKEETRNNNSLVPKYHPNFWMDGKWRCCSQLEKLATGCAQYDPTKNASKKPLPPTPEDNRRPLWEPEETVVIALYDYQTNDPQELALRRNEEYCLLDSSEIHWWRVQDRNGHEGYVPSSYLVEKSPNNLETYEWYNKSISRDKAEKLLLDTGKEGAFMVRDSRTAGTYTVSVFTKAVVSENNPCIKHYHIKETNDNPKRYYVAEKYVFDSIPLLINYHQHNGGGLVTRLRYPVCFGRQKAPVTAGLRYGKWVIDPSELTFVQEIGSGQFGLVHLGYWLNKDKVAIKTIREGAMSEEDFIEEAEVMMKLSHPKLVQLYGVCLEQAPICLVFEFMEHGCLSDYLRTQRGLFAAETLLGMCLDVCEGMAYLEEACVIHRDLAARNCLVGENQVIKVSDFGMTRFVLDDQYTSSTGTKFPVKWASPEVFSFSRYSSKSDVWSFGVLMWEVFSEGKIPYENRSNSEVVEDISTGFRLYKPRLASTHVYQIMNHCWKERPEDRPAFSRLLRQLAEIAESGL"}, "[6]": {"biological_target": "T3, LATS1 (Homo sapiens, UniProt O95835)", "T3 sequence (O95835 1-1130)": "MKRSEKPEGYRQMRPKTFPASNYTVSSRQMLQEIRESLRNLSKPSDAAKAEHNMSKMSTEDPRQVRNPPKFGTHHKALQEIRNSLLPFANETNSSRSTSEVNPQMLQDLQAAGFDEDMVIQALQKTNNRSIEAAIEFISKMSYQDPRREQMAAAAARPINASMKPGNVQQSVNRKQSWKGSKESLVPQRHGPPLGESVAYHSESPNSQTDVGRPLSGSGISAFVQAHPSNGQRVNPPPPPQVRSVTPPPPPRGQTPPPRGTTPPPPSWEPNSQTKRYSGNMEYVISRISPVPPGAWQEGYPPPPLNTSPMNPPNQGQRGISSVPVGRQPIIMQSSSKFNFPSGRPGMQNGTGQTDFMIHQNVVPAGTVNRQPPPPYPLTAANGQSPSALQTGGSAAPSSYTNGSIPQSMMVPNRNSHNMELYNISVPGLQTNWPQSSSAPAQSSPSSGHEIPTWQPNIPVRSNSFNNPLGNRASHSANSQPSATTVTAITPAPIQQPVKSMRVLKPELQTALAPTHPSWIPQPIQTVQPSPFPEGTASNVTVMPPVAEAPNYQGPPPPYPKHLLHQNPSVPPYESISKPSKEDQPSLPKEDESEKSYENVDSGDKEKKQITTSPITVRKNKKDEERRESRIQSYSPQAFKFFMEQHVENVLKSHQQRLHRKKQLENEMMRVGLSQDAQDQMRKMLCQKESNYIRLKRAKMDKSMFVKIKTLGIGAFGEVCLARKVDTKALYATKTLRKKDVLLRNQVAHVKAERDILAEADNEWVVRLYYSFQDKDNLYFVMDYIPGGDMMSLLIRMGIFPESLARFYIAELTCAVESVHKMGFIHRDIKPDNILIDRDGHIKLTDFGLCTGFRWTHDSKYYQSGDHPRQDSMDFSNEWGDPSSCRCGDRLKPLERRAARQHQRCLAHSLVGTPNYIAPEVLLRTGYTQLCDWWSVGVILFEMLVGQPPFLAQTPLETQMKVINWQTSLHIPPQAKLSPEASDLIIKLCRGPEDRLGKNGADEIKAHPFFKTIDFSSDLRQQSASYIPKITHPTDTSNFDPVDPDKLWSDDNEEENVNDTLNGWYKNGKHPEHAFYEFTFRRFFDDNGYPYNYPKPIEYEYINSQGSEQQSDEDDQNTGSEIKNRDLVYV"}, "[7]": {"biological_target": "MAP4K4 (Homo sapiens, UniProt O95819)", "sequence (O95819 whole entry)": "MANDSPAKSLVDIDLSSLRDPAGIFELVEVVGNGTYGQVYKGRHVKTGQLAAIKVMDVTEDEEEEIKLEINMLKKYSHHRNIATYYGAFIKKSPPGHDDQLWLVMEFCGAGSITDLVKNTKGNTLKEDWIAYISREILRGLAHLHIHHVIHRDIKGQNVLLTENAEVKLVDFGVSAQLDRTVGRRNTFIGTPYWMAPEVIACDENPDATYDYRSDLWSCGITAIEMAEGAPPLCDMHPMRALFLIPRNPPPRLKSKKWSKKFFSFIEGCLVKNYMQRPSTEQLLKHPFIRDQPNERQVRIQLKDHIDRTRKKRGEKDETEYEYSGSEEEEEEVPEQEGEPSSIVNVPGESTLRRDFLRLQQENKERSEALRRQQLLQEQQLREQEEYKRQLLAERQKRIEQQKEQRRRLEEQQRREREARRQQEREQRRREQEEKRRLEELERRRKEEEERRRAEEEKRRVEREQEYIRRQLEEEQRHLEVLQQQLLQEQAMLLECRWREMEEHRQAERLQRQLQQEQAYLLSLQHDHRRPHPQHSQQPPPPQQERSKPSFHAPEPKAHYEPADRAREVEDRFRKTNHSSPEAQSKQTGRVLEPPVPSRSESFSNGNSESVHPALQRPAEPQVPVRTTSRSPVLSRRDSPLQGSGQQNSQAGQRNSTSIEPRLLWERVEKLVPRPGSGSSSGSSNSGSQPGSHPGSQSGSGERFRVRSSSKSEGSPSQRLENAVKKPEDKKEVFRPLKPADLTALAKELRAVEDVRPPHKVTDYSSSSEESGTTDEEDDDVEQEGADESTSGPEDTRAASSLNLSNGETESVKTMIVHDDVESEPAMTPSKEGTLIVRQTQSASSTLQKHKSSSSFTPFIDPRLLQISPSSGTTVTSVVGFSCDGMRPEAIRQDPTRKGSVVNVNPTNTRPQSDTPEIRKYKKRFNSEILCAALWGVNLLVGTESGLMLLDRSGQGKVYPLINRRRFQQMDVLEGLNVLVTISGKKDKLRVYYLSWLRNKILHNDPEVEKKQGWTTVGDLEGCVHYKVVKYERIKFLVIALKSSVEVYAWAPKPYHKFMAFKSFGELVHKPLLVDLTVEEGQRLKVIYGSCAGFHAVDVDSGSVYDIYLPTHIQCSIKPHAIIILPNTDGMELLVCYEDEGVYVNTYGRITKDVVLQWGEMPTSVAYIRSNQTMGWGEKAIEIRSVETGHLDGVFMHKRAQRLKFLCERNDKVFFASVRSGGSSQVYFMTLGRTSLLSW"}, "[8]": {"biological_target": "MKNK1 (Homo sapiens, UniProt Q9BUB5)", "sequence (Q9BUB5 whole entry)": "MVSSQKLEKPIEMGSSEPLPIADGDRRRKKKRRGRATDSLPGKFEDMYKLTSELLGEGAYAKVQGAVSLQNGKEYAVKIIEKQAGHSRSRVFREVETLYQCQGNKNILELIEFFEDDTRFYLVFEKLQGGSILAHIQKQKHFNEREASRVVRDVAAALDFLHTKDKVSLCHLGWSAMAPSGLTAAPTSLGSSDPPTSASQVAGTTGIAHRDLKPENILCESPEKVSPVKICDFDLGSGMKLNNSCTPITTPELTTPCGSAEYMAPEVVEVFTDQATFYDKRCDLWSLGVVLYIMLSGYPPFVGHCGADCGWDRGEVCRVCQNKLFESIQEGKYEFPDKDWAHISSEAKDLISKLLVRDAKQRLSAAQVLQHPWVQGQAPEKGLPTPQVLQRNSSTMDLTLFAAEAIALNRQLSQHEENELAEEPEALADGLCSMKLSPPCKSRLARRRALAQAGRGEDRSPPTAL"}, "[9]": {"biological_target": "T4, ZAK (Homo sapiens, UniProt Q9NYL2)", "T4 construct": "gene MAP3K20", "T4 sequence (Q9NYL2 whole entry)": "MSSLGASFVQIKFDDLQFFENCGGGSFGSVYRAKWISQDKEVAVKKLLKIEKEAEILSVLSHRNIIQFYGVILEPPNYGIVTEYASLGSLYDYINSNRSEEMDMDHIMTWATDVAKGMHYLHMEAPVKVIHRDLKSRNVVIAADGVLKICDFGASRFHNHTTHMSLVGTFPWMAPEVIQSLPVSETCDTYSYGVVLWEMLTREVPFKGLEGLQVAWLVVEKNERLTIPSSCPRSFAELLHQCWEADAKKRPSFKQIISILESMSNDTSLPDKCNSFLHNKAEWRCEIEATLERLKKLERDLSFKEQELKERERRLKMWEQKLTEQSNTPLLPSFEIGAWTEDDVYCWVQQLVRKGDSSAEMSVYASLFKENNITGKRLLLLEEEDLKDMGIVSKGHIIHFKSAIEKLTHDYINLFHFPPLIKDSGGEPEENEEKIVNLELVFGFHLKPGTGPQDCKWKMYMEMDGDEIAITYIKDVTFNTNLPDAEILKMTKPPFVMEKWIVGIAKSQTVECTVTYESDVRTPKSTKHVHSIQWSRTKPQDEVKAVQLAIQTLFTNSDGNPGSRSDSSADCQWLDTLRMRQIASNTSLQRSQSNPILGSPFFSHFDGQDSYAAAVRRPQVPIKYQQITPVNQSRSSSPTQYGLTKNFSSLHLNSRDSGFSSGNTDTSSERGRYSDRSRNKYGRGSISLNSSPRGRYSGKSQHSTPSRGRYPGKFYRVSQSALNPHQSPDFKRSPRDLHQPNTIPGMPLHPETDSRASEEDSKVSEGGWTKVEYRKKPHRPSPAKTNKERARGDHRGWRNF"}, "[10]": {"details": "read-out: Percent control / Acalabrutinib"}, "[11]": {"details": "read-out: Percent control / Ibrutinib"}, "[12]": {"details": "read-out: Percent control / Tirabrutinib"}, "[13]": {"details": "read-out: Percent control / Zanubrutinib"}}, "note": "Read-outs that look alike come from different tables or passages of the source.", "data": [{"smiles": "CC#CC(=O)N1CCC[C@H]1c1nc(-c2ccc(C(=O)Nc3ccccn3)cc2)c2c(N)nccn12", "note": "[Acalabrutinib]", "values": [{"measurement": "remaining binding at 0.3 µM", "setting": "[1]; [10]", "value": 84, "unit": "%"}, {"measurement": "remaining binding at 0.3 µM", "setting": "[2]; [10]", "value": 91, "unit": "%"}, {"measurement": "remaining binding at 0.3 µM", "setting": "[3]; [10]", "value": 95, "unit": "%"}, {"measurement": "remaining binding at 0.3 µM", "setting": "[4]; [10]", "value": 99, "unit": "%"}, {"measurement": "remaining binding at 0.3 µM", "setting": "[5]; [10]", "value": 97, "unit": "%"}, {"measurement": "remaining binding at 0.3 µM", "setting": "[6]; [10]", "value": 79, "unit": "%"}, {"measurement": "remaining binding at 0.3 µM", "setting": "[7]; [10]", "value": 92, "unit": "%"}, {"measurement": "remaining binding at 0.3 µM", "setting": "[8]; [10]", "value": 84, "unit": "%"}, {"measurement": "remaining binding at 0.3 µM", "setting": "[9]; [10]", "value": 83, "unit": "%"}]}, {"smiles": "C=CC(=O)N1CCC[C@@H](n2nc(-c3ccc(Oc4ccccc4)cc3)c3c(N)ncnc32)C1", "note": "[Ibrutinib]", "values": [{"measurement": "remaining binding at 0.3 µM", "setting": "[1]; [11]", "value": 93, "unit": "%"}, {"measurement": "remaining binding at 0.3 µM", "setting": "[4]; [11]", "value": 51, "unit": "%"}, {"measurement": "remaining binding at 0.3 µM", "setting": "[5]; [11]", "value": 27, "unit": "%"}, {"measurement": "remaining binding at 0.3 µM", "setting": "[6]; [11]", "value": 83, "unit": "%"}, {"measurement": "remaining binding at 0.3 µM", "setting": "[7]; [11]", "value": 98, "unit": "%"}, {"measurement": "remaining binding at 0.3 µM", "setting": "[8]; [11]", "value": 89, "unit": "%"}, {"measurement": "remaining binding at 0.3 µM", "setting": "[9]; [11]", "value": 70, "unit": "%"}]}, {"smiles": "CC#CC(=O)N1CC[C@@H](n2c(=O)n(-c3ccc(Oc4ccccc4)cc3)c3c(N)ncnc32)C1", "note": "[Tirabrutinib]", "values": [{"measurement": "remaining binding at 0.3 µM", "setting": "[1]; [12]", "value": 93, "unit": "%"}, {"measurement": "remaining binding at 0.3 µM", "setting": "[2]; [12]", "value": 99, "unit": "%"}, {"measurement": "remaining binding at 0.3 µM", "setting": "[3]; [12]", "value": 92, "unit": "%"}, {"measurement": "remaining binding at 0.3 µM", "setting": "[4]; [12]", "value": 78, "unit": "%"}, {"measurement": "remaining binding at 0.3 µM", "setting": "[5]; [12]", "value": 99, "unit": "%"}, {"measurement": "remaining binding at 0.3 µM", "setting": "[7]; [12]", "value": 98, "unit": "%"}, {"measurement": "remaining binding at 0.3 µM", "setting": "[8]; [12]", "value": 87, "unit": "%"}]}, {"smiles": "C=CC(=O)N1CCC([C@@H]2CCNc3c(C(N)=O)c(-c4ccc(Oc5ccccc5)cc4)nn32)CC1", "note": "[Zanubrutinib]", "values": [{"measurement": "remaining binding at 0.3 µM", "setting": "[1]; [13]", "value": 83, "unit": "%"}, {"measurement": "remaining binding at 0.3 µM", "setting": "[2]; [13]", "value": 90, "unit": "%"}, {"measurement": "remaining binding at 0.3 µM", "setting": "[3]; [13]", "value": 93, "unit": "%"}, {"measurement": "remaining binding at 0.3 µM", "setting": "[4]; [13]", "value": 97, "unit": "%"}, {"measurement": "remaining binding at 0.3 µM", "setting": "[5]; [13]", "value": 97, "unit": "%"}, {"measurement": "remaining binding at 0.3 µM", "setting": "[6]; [13]", "value": 72, "unit": "%"}, {"measurement": "remaining binding at 0.3 µM", "setting": "[7]; [13]", "value": 100, "unit": "%"}, {"measurement": "remaining binding at 0.3 µM", "setting": "[8]; [13]", "value": 100, "unit": "%"}, {"measurement": "remaining binding at 0.3 µM", "setting": "[9]; [13]", "value": 62, "unit": "%"}]}]}
